# According to patent US9282743B2, “Chemical compounds” (Syngenta Participations AG, priority 2011, dated 2016):
# What was measured:
# Lolium perenne (LOLPE) [1] = assay: Example B6: post application on weeds, LOLPE; assay type: in vivo; conditions: 312 h, after 13 days, 100 = total damage, 0 = no damage, read-out: LOLPE damage to plant
# Protocol: (§1) Lolium perenne (LOLPE), Alopecurus myosuroides (ALOMY), Echinochloa crus-galli (ECHCG) and Avena fatua (AVEFA). Activity Against Weeds Seeds of a variety of test species were sown in standard soil in pots. After cultivation for 8 days under controlled conditions in a glasshouse (at 24/16° C., day/night; 14 hours light; 65% humidity), the plants were sprayed with an aqueous spray solution derived from the formulation of the technical active ingredient in acetone/water (50:50) solution containing 0.5% Tween 20 (polyoxyethelyene sorbitan monolaurate, CAS RN 9005-64-5). The test plants were then grown in a glasshouse under controlled conditions in a glasshouse (at 24/16° C., day/night; 14 hours light; 65% humidity) and watered twice daily. After 13 days, the test was evaluated (100=total damage to plant; 0=no damage to plant).
# [2] = system: Alopecurus myosuroides (ALOMY); assay: Example B6: post application on weeds, ALOMY; assay type: in vivo; conditions: 312 h, after 13 days, 100 = total damage, 0 = no damage, read-out: ALOMY damage to plant
# Protocol: as §1
# [3] = system: Echinochloa crus-galli (ECHCG); assay: Example B6: post application on weeds, ECHCG; assay type: in vivo; conditions: 312 h, after 13 days, 100 = total damage, 0 = no damage, read-out: ECHCG damage to plant
# Protocol: as §1
# Avena fatua (AVEFA) [4] = assay: Example B6: post application on weeds, AVEFA; assay type: in vivo; conditions: 312 h, after 13 days, 100 = total damage, 0 = no damage, read-out: AVEFA damage to plant
# Protocol: as §1
# Lolium perenne (LOLPE) [5] = assay: Example B7: pre application on weeds, LOLPE; assay type: in vivo; conditions: 312 h, pre-emergence spray one day after sowing, evaluated after 13 days, read-out: Pre application on weeds, LOLPE (100=total damage to plant; 0=no damage to plant)
# Protocol: as §1, with “one day” for “8 days”
# [6] = system: Alopecurus myosuroides (ALOMY); assay: Example B7: pre application on weeds, ALOMY; assay type: in vivo; conditions: 312 h, pre-emergence spray one day after sowing, evaluated after 13 days, read-out: Pre application on weeds, ALOMY (100=total damage to plant; 0=no damage to plant)
# Protocol: as §1, with “one day” for “8 days”
# [7] = system: Echinochloa crus-galli (ECHCG); assay: Example B7: pre application on weeds, ECHCG; assay type: in vivo; conditions: 312 h, pre-emergence spray one day after sowing, evaluated after 13 days, read-out: Pre application on weeds, ECHCG (100=total damage to plant; 0=no damage to plant)
# Protocol: as §1, with “one day” for “8 days”
# Avena fatua (AVEFA) [8] = assay: Example B7: pre application on weeds, AVEFA; assay type: in vivo; conditions: 312 h, pre-emergence spray one day after sowing, evaluated after 13 days, read-out: Pre application on weeds, AVEFA (100=total damage to plant; 0=no damage to plant)
# Protocol: as §1, with “one day” for “8 days”
# Winter wheat (TRZAW) = assay: Example B8: post application on wheat, with and without safener cloquintocet-mexyl; assay type: in vivo; conditions: after 13 days, 100 = total damage, 0 = no damage
# Protocol: Application with Safener (Cloquintocet-Mexyl) Winter wheat seeds with a seed treatment of cloquintocet-mexyl applied at a rate of 0.5 g/kg seeds were sown in standard soil in pots. After cultivation for 8 days under controlled conditions in a glasshouse (at 24/16° C., day/night; 14 hours light; 65% humidity), the plants were sprayed with an aqueous spray solution derived from the formulation of the technical active ingredient in acetone/water (50:50) solution containing 0.5% Tween 20 (polyoxyethelyene sorbitan monolaurate, CAS RN 9005-64-5). The test plants were then grown in a glasshouse under controlled conditions in a glasshouse (at 24/16° C., day/night; 14 hours light; 65% humidity) and watered twice daily. After 13 days, the test was evaluated (100=total damage to plant; 0=no damage to plant).
# [9] = 250 g/ha + 0.5 g/kg seeds cloquintocet-mexyl
Compound,melting point,pest or weed control at 250 g/ha (Lolium perenne (LOLPE) [1]) [%],pest or weed control at 250 g/ha [2] [%],pest or weed control at 250 g/ha [3] [%],pest or weed control at 250 g/ha (Avena fatua (AVEFA) [4]) [%],pest or weed control at 250 g/ha (Lolium perenne (LOLPE) [5]) [%],pest or weed control at 250 g/ha [6] [%],pest or weed control at 250 g/ha [7] [%],pest or weed control at 250 g/ha (Avena fatua (AVEFA) [8]) [%],TRZAW damage to plant (Winter wheat (TRZAW); 62.5 g/ha + 0.5 g/kg seeds cloquintocet-mexyl),"TRZAW damage to plant (Winter wheat (TRZAW); 62.5 g/ha, without safener)",TRZAW damage to plant (Winter wheat (TRZAW); [9]),"TRZAW damage to plant (Winter wheat (TRZAW); 250 g/ha, without safener)"
CCOC(=O)Oc1c(-c2cc(C)c(C)cc2C)c(=O)n2n1CCN(OC)CC2 [Compound P1.21],117 to 118 °C,,,,,,,,,,,,
C#Cc1cc(C)c(C2C(=O)N3CCN(OC)CCN3C2=O)c(C)c1 [Compound P2.8],,70,60,60,40,60,80,10,10,,,10,40
CON1CCN2C(=O)C(c3c(C)cc(Br)cc3C)C(=O)N2CC1 [Compound P2.9],,70,60,60,60,80,80,40,20,,,20,60
CON1CCN2C(=O)C(c3c(Cl)cc(C)cc3Br)C(=O)N2CC1 [Compound P2.10],,90,80,80,70,100,100,100,60,,,20,70
CON1CCN2C(=O)C(c3c(C)cc(Cl)cc3Br)C(=O)N2CC1 [Compound P2.11],,70,70,60,60,80,80,70,50,,,20,50
COc1cc(C)cc(C)c1C1C(=O)N2CCN(OC)CCN2C1=O [Compound P2.12],,80,80,90,80,70,80,60,60,,,30,70

# Second part, led by results:
melting point,Compound,pest or weed control at 250 g/ha (Lolium perenne (LOLPE) [1]) [%],pest or weed control at 250 g/ha [2] [%],pest or weed control at 250 g/ha [3] [%],pest or weed control at 250 g/ha (Avena fatua (AVEFA) [4]) [%],pest or weed control at 250 g/ha (Lolium perenne (LOLPE) [5]) [%],pest or weed control at 250 g/ha [6] [%],pest or weed control at 250 g/ha [7] [%],pest or weed control at 250 g/ha (Avena fatua (AVEFA) [8]) [%],TRZAW damage to plant (Winter wheat (TRZAW); 62.5 g/ha + 0.5 g/kg seeds cloquintocet-mexyl),"TRZAW damage to plant (Winter wheat (TRZAW); 62.5 g/ha, without safener)",TRZAW damage to plant (Winter wheat (TRZAW); [9]),"TRZAW damage to plant (Winter wheat (TRZAW); 250 g/ha, without safener)"
138 to 139 °C,CCOC(=O)Oc1c(-c2c(Cl)cc(C)cc2OC)c(=O)n2n1CCN(OC)CC2 [Compound P1.20],,,,,,,,,,,,
240 °C (dec.),"CCc1cc(C)cc(CC)c1C1C(=O)N2CCN(OC)CCN2C1=O [Compound P2.3, 8-(2,6-Diethyl-4-methyl-phenyl)-3-methoxy-tetrahydro-pyrazolo[1,2-a][1,2,5]triazepine-7,9-dione]",100,100,100,100,100,100,100,90,0,60,,
248 to 250 °C,CON1CCN2C(=O)C(c3cc(-c4ccc(Cl)cc4)ccc3C)C(=O)N2CC1 [Compound P2.7],,,,,,,,,,,,
171 to 173 °C,CON1CCN2C(=O)C(c3cc(C)c(C)cc3C)C(=O)N2CC1 [Compound P2.19],,,,,,,,,,,,
258 to 260 °C,CON1CCN2C(=O)C(c3c(C)cc(-c4ccc(Cl)cc4)cc3C)C(=O)N2CC1 [Compound P2.20],,,,,,,,,,,,
292 to 294 °C,CON1CCN2C(=O)C(c3c(C)cc(-c4ccc(F)cc4)cc3C)C(=O)N2CC1 [Compound P2.21],,,,,,,,,,,,
